Laboratory results taken from paper PMC2131780, “A Tale of Switched Functions: From Cyclooxygenase Inhibition to M-Channel Modulation in New Diphenylamine Derivatives” (PLoS ONE, 2007).

Columns and labels:
[1] = test system: MES-induced tonic hind limb extension; assay: Maximal electroshock seizure (MES) model; assay type: in vivo, mouse; conditions: mice, intraperitoneal, 30 min before electroshock; not shown
Procedure: This test is generally thought to be a model of generalized tonic-clonic seizure in human.
The anti-convulsant effect was measured by the maximal electroshock seizure model (MES) in ICR mice as previously described. The procedures followed for experimentation and maintenance of the animals were approved by the animal research ethics committee of Tel Aviv University and in accordance with the Guide for the Care and Use of Laboratory Animals (1996, National Academy of Sciences, Washington DC). Briefly, maximal electroshock was induced in adult mice by means of two transcorneal electrodes delivering an alternative current of 50 mA at 60 Hz for 0.2 sec using rodent shocker (Hugo Sachs Electronik, type 221). […] The drugs dissolved in 0.9% saline were administered intraperitoneally 30 min before the electroshock was performed. Animals failing to show tonic hind limb extension were scored as protected and were expressed in percentage.

[2] = target: T1, Kv7.2/3 K+ channels (M-channels) (Homo sapiens, UniProt O43525+O43526); assay: Whole-cell patch-clamp of recombinant Kv7.2/3 channels in CHO cells; assay type: cell-based; conditions: for M-channels (Kv7.2/Kv7.3) effect (opener / blocker / inactive): Kv7.2 and Kv7.3 coexpressed in CHO cells; for ΔV50 (mV), left-shift in half-activation potential: Kv7.2/3 in CHO cells; for EC50: concentration-dependent left-shift ΔV50, sigmoidal fit, read-out: M-channel opener potency EC50
T1 construct: expressed in transfected cells; host or cells: CHO cells
T1 sequence (O43526 whole entry): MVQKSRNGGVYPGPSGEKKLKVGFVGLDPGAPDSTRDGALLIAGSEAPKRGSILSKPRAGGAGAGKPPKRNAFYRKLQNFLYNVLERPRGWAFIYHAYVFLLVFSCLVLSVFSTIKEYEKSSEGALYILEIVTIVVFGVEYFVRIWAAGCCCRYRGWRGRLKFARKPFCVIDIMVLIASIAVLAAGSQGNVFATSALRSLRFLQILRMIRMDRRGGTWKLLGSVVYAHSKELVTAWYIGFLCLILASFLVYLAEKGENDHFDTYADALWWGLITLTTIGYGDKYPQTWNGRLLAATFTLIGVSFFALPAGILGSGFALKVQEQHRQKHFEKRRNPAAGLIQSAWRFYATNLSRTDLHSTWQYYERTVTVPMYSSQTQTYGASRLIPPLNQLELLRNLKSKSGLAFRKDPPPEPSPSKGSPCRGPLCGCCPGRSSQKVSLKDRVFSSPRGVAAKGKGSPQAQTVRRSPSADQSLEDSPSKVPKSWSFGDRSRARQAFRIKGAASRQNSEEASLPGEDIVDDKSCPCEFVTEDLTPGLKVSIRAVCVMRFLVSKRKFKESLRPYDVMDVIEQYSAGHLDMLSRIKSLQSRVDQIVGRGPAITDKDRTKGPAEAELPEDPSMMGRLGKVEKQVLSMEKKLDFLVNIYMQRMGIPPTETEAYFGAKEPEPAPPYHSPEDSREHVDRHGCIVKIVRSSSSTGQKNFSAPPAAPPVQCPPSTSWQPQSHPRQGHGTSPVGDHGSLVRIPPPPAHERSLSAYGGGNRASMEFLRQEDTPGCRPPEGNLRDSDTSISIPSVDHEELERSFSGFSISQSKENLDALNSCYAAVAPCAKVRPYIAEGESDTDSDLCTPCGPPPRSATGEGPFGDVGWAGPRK
T1 sequence (O43525 whole entry): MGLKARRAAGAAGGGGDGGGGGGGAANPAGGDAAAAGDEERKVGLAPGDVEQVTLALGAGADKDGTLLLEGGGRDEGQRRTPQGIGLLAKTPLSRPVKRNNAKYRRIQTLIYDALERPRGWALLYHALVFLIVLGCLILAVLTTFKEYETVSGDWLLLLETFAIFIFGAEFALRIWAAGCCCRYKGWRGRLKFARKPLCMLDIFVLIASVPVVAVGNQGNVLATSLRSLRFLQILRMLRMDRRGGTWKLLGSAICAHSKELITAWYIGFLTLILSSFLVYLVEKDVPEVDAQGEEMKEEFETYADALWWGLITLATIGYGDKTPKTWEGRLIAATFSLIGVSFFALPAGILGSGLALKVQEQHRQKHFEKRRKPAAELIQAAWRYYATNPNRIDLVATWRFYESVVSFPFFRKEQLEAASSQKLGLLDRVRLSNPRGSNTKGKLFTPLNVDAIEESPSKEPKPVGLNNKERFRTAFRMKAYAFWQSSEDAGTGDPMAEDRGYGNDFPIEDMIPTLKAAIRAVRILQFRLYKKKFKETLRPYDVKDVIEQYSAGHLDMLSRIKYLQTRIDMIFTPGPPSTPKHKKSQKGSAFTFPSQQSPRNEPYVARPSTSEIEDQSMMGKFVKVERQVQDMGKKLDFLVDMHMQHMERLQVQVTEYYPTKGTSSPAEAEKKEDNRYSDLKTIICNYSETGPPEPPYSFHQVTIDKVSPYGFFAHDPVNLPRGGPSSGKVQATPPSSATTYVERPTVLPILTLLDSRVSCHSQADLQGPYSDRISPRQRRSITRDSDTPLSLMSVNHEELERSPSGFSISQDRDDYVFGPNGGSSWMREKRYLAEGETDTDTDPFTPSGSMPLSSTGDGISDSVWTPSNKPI
Procedure: Chinese hamster ovary (CHO) cells were grown in Dulbecco's modified Eagle's medium (DMEM) supplemented with 2 mM glutamine, 10% fetal calf serum and antibiotics. Briefly, 40,000 cells seeded on poly-D-lysine-coated glass coverslips (13 mm diameter) in a 24-multiwell plate were transfected with pIRES-CD8 (0.5 µg) as a marker for transfection, and with Kv7.2 (0.5 µg) and Kv7.3 (0.5 µg). For electrophysiology, transfected cells were visualized approximately 40 hours following transfection, using anti-CD8 antibody-coated beads. Transfection was performed using Fugene 6 (Roche, Indianapolis IN, USA) according to the manufacturer's protocol.
Voltage-clamp recordings in CHO cells were performed, using the whole-cell configuration of the patch-clamp technique. Signals were amplified using an Axopatch 200B patch-clamp amplifier (Molecular Devices, Sunnyvale, CA), sampled at 2 kHz and filtered at 800 Hz via a 4-pole Bessel low pass filter. […] The patch pipettes were pulled from borosilicate glass (Warner Instrument Corp, USA) with a resistance of 2–5 MΩ. For K^+ current recordings in CHO cells, the intracellular pipette solution contained (in mM): 130 KCl, 1 MgCl2, 5 K2ATP, 5 EGTA, 10 HEPES, adjusted with KOH to pH 7.4 (290 mOsm). The extracellular solution contained (in mM): 140 NaCl, 4 KCl, 1.8 CaCl2, 1.2 MgCl2, 11 glucose, 5.5 HEPES, adjusted with NaOH to pH 7.4 (310 mOsm). Series resistances (3–13 MΩ) were compensated (75–90%) and periodically monitored.
Data analysis was performed using the Clampfit program (pClamp 9.2, Molecular Devices), Microsoft Excel (Microsoft) and Prism 4.0 (GraphPad). Chord conductance (G) was calculated by using the following equation: [drawing 1] where I corresponds to the current amplitude measured at the end of the pulse and Vrev, the calculated reversal potential. G was estimated at various test voltages V and then, normalized to a maximal conductance value, Gmax. Activation curves were fitted by one Boltzmann distribution: [drawing 2] where V50 is the voltage at which the current is half-activated and s is the slope factor. All data were expressed as mean±SEM. Statistically significant differences were assessed by Student's t-test. Analysis of sEPSCs and sIPSCs was done using the Clampfit program (pClamp 9.2, Molecular Devices) and included evaluation of the individual events as well as the average event amplitude and the integral of the event (total charge transfer).

[3] = test system: COX enzymes (CT26 mouse colon adenocarcinoma cells); assay: COX inhibition, PGE2 production in CT26 cells; assay type: cell-based; conditions: for IC50: average of two experiments in triplicate, read-out: COX inhibition (IC50, µM) CT26
Description: (§1) In addition, the aromatic rings of the diphenylamine moiety were substituted with different electron donating or withdrawing groups. In a first screen, two parameters were checked: (a) the non-selective inhibition of COX-1/COX-2 enzyme activities, measured by the production of PGE2 in cultured mouse colon adenocarcinoma (CT26) and mouse Lewis lung carcinoma cells (D122) cells; (b) the M-channel activity, measured by the heterologous coexpression of Kv7.2 and Kv7.3 subunits in Chinese hamster ovary (CHO) cells.
(§2) Mouse colon adenocarcinoma CT26 and mouse Lewis lung carcinoma D122 cells were grown in DMEM (D122) or RPMI (CT26) supplemented with 10% fetal calf serum, 4% glutamine, 1% penicillin-streptomycin-nystatin and 3% non essential amino acids (D122) and maintained in a humidified 37°C incubator with 5% CO2. For the COX assays, cells were grown onto 24 multiwell plates. Before the assay, cells were washed with serum-free medium; then tested compounds were added to the medium and incubated for 30 min at 37°C after which 30 µM arachidonic acid was added and incubated for additional 20 min. At the end of the incubations, 10 µM indomethacin was added to stop the reaction and medium was transferred to another 24 multiwell plate for measuring PGE2 production by radioimmunoassay (DuPont-NEN; Boston, MA) according to manufacturer protocol. Protein determination was assayed on scraped cells and was used to normalize the amount of PGE2 production. Assays with purified ovine COX-1 and human recombinant COX-2 were performed using the COX inhibitor screening assay (Cayman chemical company, Ann Arbor, MI), according to manufacturer protocol.

[4] = test system: COX enzymes (D122 mouse Lewis lung carcinoma cells); assay: COX inhibition, PGE2 production in D122 cells; assay type: cell-based; conditions: average of two experiments in triplicate
Description: as §1, §2

| SMILES | M-channels (Kv7.2/Kv7.3) effect (opener / blocker / inactive) [2] | EC50 [2] [µM] | further results |
| --- | --- | --- | --- |
| O=C1NC(=O)C(c2ccccc2)(c2ccccc2)N1 [phenytoin] |  |  | dose that fully prevented hind limb extension [1]: 20 mg/kg |
| CC(C(=O)O)c1ccc(-c2ccccc2)c(F)c1 (stereo not shown) [flurbiprofen, reference compound] | do not activate |  |  |
| CCCC(CCC)C(=O)O [sodium valproate] |  |  | dose that fully prevented hind limb extension [1]: 500 mg/kg |
| Cc1ccc(Cl)c(Nc2ccccc2C(=O)O)c1Cl [Meclofenamic acid, reference compound] | opener | 25 | ΔV50 (mV), left-shift in half-activation potential [2]: −22.7 mV; M-channels (Kv7.2/Kv7.3) effect (opener / blocker / inactive) ([2]; listed as meclofenamate): openers |
| O=C(O)Cc1ccccc1Nc1c(Cl)cccc1Cl [Diclofenac, reference compound] | opener | 2.6 | IC50 [3]: 0.003 µM; IC50 [4]: 0.1 µM; M-channels (Kv7.2/Kv7.3) effect (opener / blocker / inactive) ([2]; listed as diclofenac): openers |
| Cc1cccc(Nc2ccccc2C(=O)O)c1C [mefenamate, reference compound] | openers |  |  |
| O=C(Cc1cc([N+](=O)[O-])ccc1Nc1c(Cl)cccc1Cl)NCCO [Compound 7] | opener | 17 | effect on COX activity (Figure 1) [3]: completely unaffected; IC50 [3]: > 50 µM; IC50 [4]: > 50 µM; ΔV50 (mV), left-shift in half-activation potential [2]: −12.2 mV |
| O=C(O)c1ccccc1Nc1cccc(C(F)(F)F)c1 [flufenamate, reference compound] | openers |  |  |
| COc1ccc2cc([C@H](C)C(=O)O)ccc2c1 [naproxen, reference compound] | do not activate |  |  |
| CC(C(=O)O)c1cccc(Oc2ccccc2)c1 (stereo not shown) [fenoprofen, reference compound] | do not activate |  |  |
